Results from ChEMBL document CHEMBL3885881, “DrugMatrix”.

Species: Rattus norvegicus
Assay: DrugMatrix - Regimen: Daily Repeat
Type: toxicity, organism-based, Sprague-Dawley
Design: regimen Daily Repeat, gender Male, age 6-8 weeks
Conditions: in vivo, po, route oral GAVAGE, […]; for ABSOLUTE BASOPHIL / ABSOLUTE EOSINOPHIL / ABSOLUTE LYMPHOCYTE / ABSOLUTE MONOCYTE / ABSOLUTE SEGMENTED NEUTROPHIL / BASOPHIL / EOSINOPHIL / ERYTHROCYTE COUNT / HEMATOCRIT / HEMOGLOBIN / LEUKOCYTE COUNT / LYMPHOCYTE / MEAN CORPUSCULAR HEMOGLOBIN / MEAN CORPUSCULAR HEMOGLOBIN CONCENTRATION / MEAN CORPUSCULAR VOLUME / MONOCYTE / NEUTROPHIL / NUCLEATED RED BLOOD CELLS / PLATELET COUNT: tissue Blood; for ALANINE AMINOTRANSFERASE / ALBUMIN / ALKALINE PHOSPHATASE / ASPARTATE AMINOTRANSFERASE / BLOOD UREA NITROGEN / CARBON DIOXIDE / CHLORIDE / CHOLESTEROL / CREATINE PHOSPHOKINASE / CREATININE / GLUCOSE / LACTATE DEHYDROGENASE / LIPASE / PHOSPHORUS / POTASSIUM / SODIUM / TOTAL BILIRUBIN / TOTAL PROTEIN / URIC ACID: tissue Plasma
[1] = 5 mg/kg, 120 h, dose level Low, time 5 day
[2] = 94 mg/kg, 72 h, dose level High, time 3 day
[3] = 94 mg/kg, 120 h, dose level High, time 5 day

Compound: CC(C)n1c(/C=C/C(O)CC(O)CC(=O)O)c(-c2ccc(F)cc2)c2ccccc21 (centres undefined) [FLUVASTATIN]
- ABSOLUTE BASOPHIL [1]: 0 CELLS/uL
- ABSOLUTE EOSINOPHIL [1]: 0 CELLS/uL
- ABSOLUTE LYMPHOCYTE [1]: 8489.33 CELLS/uL
- ABSOLUTE MONOCYTE [1]: 28 CELLS/uL
- ABSOLUTE SEGMENTED NEUTROPHIL [1]: 816 CELLS/uL
- BASOPHIL [1]: 0%
- EOSINOPHIL [1]: 0%
- ERYTHROCYTE COUNT [1]: 5.73 x10E6/uL
- HEMATOCRIT [1]: 34.77%
- HEMOGLOBIN [1]: 13.73 G/DL
- LEUKOCYTE COUNT [1]: 9.33 x10E3/uL
- LYMPHOCYTE [1]: 90.67%
- MEAN CORPUSCULAR HEMOGLOBIN [1]: 24 pg
- MEAN CORPUSCULAR HEMOGLOBIN CONCENTRATION [1]: 39.5 G/DL
- MEAN CORPUSCULAR VOLUME [1]: 60.73 fL
- MONOCYTE [1]: 0.33%
- NEUTROPHIL [1]: 9%
- NUCLEATED RED BLOOD CELLS [1]: 0 /100WBC
- PLATELET COUNT [1]: 1186.33 x10E3/uL
- ALANINE AMINOTRANSFERASE [1]: 89.67 u/L
- ALBUMIN [1]: 4.33 G/DL
- ALKALINE PHOSPHATASE [1]: 440.33 u/L
- ASPARTATE AMINOTRANSFERASE [1]: 141.33 u/L
- BLOOD UREA NITROGEN [1]: 13 mg/dL
- CARBON DIOXIDE [1]: 25.67 mmol/L
- CHLORIDE [1]: 103 MEQ/L
- CHOLESTEROL [1]: 59.67 mg/dL
- CREATINE PHOSPHOKINASE [1]: 300.67 u/L
- CREATININE [1]: 0.19 mg/dL
- GLUCOSE [1]: 158.33 mg/dL
- LACTATE DEHYDROGENASE [1]: 263.33 u/L
- LIPASE [1]: 51.67 u/L
- PHOSPHORUS [1]: 9.2 mg/dL
- POTASSIUM [1]: 5.92 MEQ/L
- SODIUM [1]: 148.8 MEQ/L
- TOTAL BILIRUBIN [1]: 0.17 mg/dL
- TOTAL PROTEIN [1]: 5.6 G/DL
- URIC ACID [1]: 0.77 mg/dL
- ABSOLUTE BASOPHIL [2]: 0 CELLS/uL
- ABSOLUTE EOSINOPHIL [2]: 39 CELLS/uL
- ABSOLUTE LYMPHOCYTE [2]: 7651.67 CELLS/uL
- ABSOLUTE MONOCYTE [2]: 155.33 CELLS/uL
- ABSOLUTE SEGMENTED NEUTROPHIL [2]: 2554 CELLS/uL
- BASOPHIL [2]: 0%
- EOSINOPHIL [2]: 0.33%
- ERYTHROCYTE COUNT [2]: 5.55 x10E6/uL
- HEMATOCRIT [2]: 35.43%
- HEMOGLOBIN [2]: 13.93 G/DL
- LEUKOCYTE COUNT [2]: 10.4 x10E3/uL
- LYMPHOCYTE [2]: 73.33%
- MEAN CORPUSCULAR HEMOGLOBIN [2]: 25.1 pg
- MEAN CORPUSCULAR HEMOGLOBIN CONCENTRATION [2]: 39.33 G/DL
- MEAN CORPUSCULAR VOLUME [2]: 63.83 fL
- MONOCYTE [2]: 1.33%
- NEUTROPHIL [2]: 25%
- NUCLEATED RED BLOOD CELLS [2]: 0 /100WBC
- PLATELET COUNT [2]: 1394.33 x10E3/uL
- ALANINE AMINOTRANSFERASE [2]: 258.33 u/L
- ALBUMIN [2]: 4.47 G/DL
- ALKALINE PHOSPHATASE [2]: 597.67 u/L
- ASPARTATE AMINOTRANSFERASE [2]: 446.67 u/L
- BLOOD UREA NITROGEN [2]: 15 mg/dL
- CARBON DIOXIDE [2]: 34.67 mmol/L
- CHLORIDE [2]: 95.67 MEQ/L
- CHOLESTEROL [2]: 55.67 mg/dL
- CREATINE PHOSPHOKINASE [2]: 534 u/L
- CREATININE [2]: 0.16 mg/dL
- GLUCOSE [2]: 136.33 mg/dL
- LACTATE DEHYDROGENASE [2]: 400.33 u/L
- LIPASE [2]: 10 u/L
- PHOSPHORUS [2]: 11.83 mg/dL
- POTASSIUM [2]: 5.75 MEQ/L
- SODIUM [2]: 143.43 MEQ/L
- TOTAL BILIRUBIN [2]: 0.2 mg/dL
- TOTAL PROTEIN [2]: 6.1 G/DL
- URIC ACID [2]: 0.7 mg/dL
- ABSOLUTE BASOPHIL [3]: 0 CELLS/uL
- ABSOLUTE EOSINOPHIL [3]: 0 CELLS/uL
- ABSOLUTE LYMPHOCYTE [3]: 6138.33 CELLS/uL
- ABSOLUTE MONOCYTE [3]: 139 CELLS/uL
- ABSOLUTE SEGMENTED NEUTROPHIL [3]: 2022.67 CELLS/uL
- BASOPHIL [3]: 0%
- EOSINOPHIL [3]: 0%
- ERYTHROCYTE COUNT [3]: 6.14 x10E6/uL
- HEMATOCRIT [3]: 37.2%
- HEMOGLOBIN [3]: 14.47 G/DL
- LEUKOCYTE COUNT [3]: 8.3 x10E3/uL
- LYMPHOCYTE [3]: 74%
- MEAN CORPUSCULAR HEMOGLOBIN [3]: 23.6 pg
- MEAN CORPUSCULAR HEMOGLOBIN CONCENTRATION [3]: 38.9 G/DL
- MEAN CORPUSCULAR VOLUME [3]: 60.67 fL
- MONOCYTE [3]: 1.67%
- NEUTROPHIL [3]: 24.33%
- NUCLEATED RED BLOOD CELLS [3]: 0 /100WBC
- PLATELET COUNT [3]: 1488.67 x10E3/uL
- ALANINE AMINOTRANSFERASE [3]: 191 u/L
- ALBUMIN [3]: 4.5 G/DL
- ALKALINE PHOSPHATASE [3]: 802.67 u/L
- ASPARTATE AMINOTRANSFERASE [3]: 387.67 u/L
- BLOOD UREA NITROGEN [3]: 11.67 mg/dL
- CARBON DIOXIDE [3]: 29.33 mmol/L
- CHLORIDE [3]: 100 MEQ/L
- CHOLESTEROL [3]: 53.33 mg/dL
- CREATINE PHOSPHOKINASE [3]: 612.33 u/L
- CREATININE [3]: 0.13 mg/dL
- GLUCOSE [3]: 134.33 mg/dL
- LACTATE DEHYDROGENASE [3]: 263.33 u/L
- LIPASE [3]: 38.67 u/L
- PHOSPHORUS [3]: 7.8 mg/dL
- POTASSIUM [3]: 5.55 MEQ/L
- SODIUM [3]: 149.05 MEQ/L
- TOTAL BILIRUBIN [3]: 0.1 mg/dL
- TOTAL PROTEIN [3]: 6.03 G/DL
- URIC ACID [3]: 0.43 mg/dL
